Laboratory results published in patent publication US6737383B1, “Herbicidal oxadiazolidines” (priority 1999, dated 2004).

Key:
blackgrass = experiment: Test B pre/postemergence blackgrass; format: in vivo, Alopecurus myosuroides
In short: (§1)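 Test chemicals in a non-phytotoxic solvent mixture with surfactant were sprayed preemergence onto planted seeds and postemergence onto plants 2 to 18 cm tall (1- to 4-leaf stage). After twelve to sixteen days in a greenhouse, injury was visually rated against untreated controls from 0 (no effect) to 10 (complete control).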

surinam grass = experiment: Test B pre/postemergence surinam grass; format: in vivo, Brachiaria decumbens
In short: as §1

cocklebur = experiment: Test B pre/postemergence cocklebur; format: in vivo, Xanthium strumarium
In short: as §1

corn = experiment: Test B pre/postemergence corn; format: in vivo, Zea mays
In short: as §1

crabgrass = experiment: Test B pre/postemergence crabgrass; format: in vivo, Digitaria sanguinalis
In short: as §1

giant foxtail = experiment: Test B pre/postemergence giant foxtail; format: in vivo, Setaria faberii
In short: as §1

morningglory = experiment: Test B pre/postemergence morningglory; format: in vivo, Ipomoea hederacea
In short: as §1

pigweed = experiment: Test B pre/postemergence pigweed; format: in vivo, Amaranthus retroflexus
In short: as §1

rape = experiment: Test B pre/postemergence rape; format: in vivo, Brassica napus
In short: as §1

soybean = experiment: Test B pre/postemergence soybean; format: in vivo, Glycine max
In short: as §1

sugar beet = experiment: Test B pre/postemergence sugar beet; format: in vivo, Beta vulgaris
In short: as §1

velvetleaf = experiment: Test B pre/postemergence velvetleaf; format: in vivo, Abutilon theophrasti
In short: as §1

wheat = experiment: Test B pre/postemergence wheat; format: in vivo, Triticum aestivum
In short: as §1

wild oat = experiment: Test B pre/postemergence wild oat; format: in vivo, Avena fatua
In short: as §1

purple nutsedge = experiment: Test B pre/postemergence purple nutsedge; format: in vivo, Cyperus rotundus
In short: as §1

rice = experiment: Test B flood test rice; format: in vivo, Oryza sativa
In short: (§2)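 Plants were grown to the 2-leaf stage before treatment with test chemical, then held in a greenhouse for twelve to sixteen days. Injury was visually rated against untreated controls on a 0–10 scale, where 0 is no effect and 10 is complete control.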

smallflower flatsedge = experiment: Test B flood test smallflower flatsedge; format: in vivo, Cyperus difformis
In short: as §2

duck salad = experiment: Test B flood test duck salad; format: in vivo, Heteranthera limosa
In short: as §2

bamyardgrass = experiment: Test B flood test barnyardgrass; format: in vivo, Echinochloa crus-galli
In short: as §2

[1] = Postemergence, Rate 62 g/ha, scale 0 to 10, 0 is no effect, 10 is complete control
[2] = Postemergence, Rate 125 g/ha, scale of 0 to 10 where 0 is no effect and 10 is complete control
[3] = Postemergence, Rate 250 g/ha, scale of 0 to 10, 0 is no effect, 10 is complete control
[4] = Postemergence, Rate 500 g/ha, scale of 0 to 10 where 0 is no effect and 10 is complete control
[5] = Preemergence, Rate 62 g/ha, scale 0 to 10 (0 no effect, 10 complete control)
[6] = Preemergence, Rate 125 g/ha, scale of 0 to 10 where 0 is no effect and 10 is complete control
[7] = Preemergence, Rate 500 g/ha, scale of 0 to 10 where 0 is no effect and 10 is complete control
[8] = Rate 62 g/ha, flood test species, Pre-emergence, visual evaluation after twelve to sixteen days
[9] = Rate 125 g/ha, under heading Pre-emergence, flood test species, visual evaluation after twelve to sixteen days
[10] = Rate 250 g/ha, Pre-emergence (flood test species), scale 0 to 10, 0 is no effect, 10 is complete control
[11] = Rate 500 g/ha, Pre-emergence section of Table B, 0 to 10 scale (0 no effect, 10 complete control)

CC(C)N(C(=O)n1oc(=O)n(CC(C)[N+](=O)[O-])c1=O)c1ccc(F)cc1F (centres unmarked) [Compound 603]
2: Morningglory plant response rating (morningglory; [3]) | Soybean plant response rating (soybean; [3]) | Plant response rating, Soybean (soybean; [4]) | Plant response rating, Velvetleaf (velvetleaf; [4])
0: Plant response rating, Blackgrass (blackgrass; [1]) | Plant response rating, Blackgrass (blackgrass; [2]) | Blackgrass plant response rating (blackgrass; [3]) | Plant response rating, Blackgrass (blackgrass; [4]) | Blackgrass plant response rating (blackgrass; [5]) | Blackgrass plant response rating (blackgrass; [6]) | Blackgrass plant response rating (0 to 10 scale) (blackgrass; Preemergence, Rate 250 g/ha) | Blackgrass plant response rating (blackgrass; [7]) | Plant response rating, B. signalgrass (surinam grass; [1]) | Plant response rating, B. signalgrass (surinam grass; [2]) | B. signalgrass plant response rating (surinam grass; [3]) | Plant response rating, B. signalgrass (surinam grass; [4]) | B. signalgrass plant response rating (surinam grass; [5]) | B. signalgrass plant response rating (surinam grass; [6]) | B. signalgrass plant response rating (0 to 10 scale, 0 is no effect, 10 is complete control) (surinam grass; Preemergence, Rate 250 g/ha) | B. signalgrass plant response rating (surinam grass; [7]) | Plant response rating, Cocklebur (cocklebur; [1]) | Plant response rating, Cocklebur (cocklebur; [2]) | Cocklebur plant response rating (cocklebur; [3]) | Plant response rating, Cocklebur (cocklebur; [4]) | Cocklebur plant response rating (cocklebur; [5]) | Cocklebur plant response rating (cocklebur; [6]) | Cocklebur plant response rating (0 to 10 scale) (cocklebur; Preemergence, Rate 250 g/ha) | Plant response rating, Cocklebur (cocklebur; [7]) | Plant response rating, Corn (corn; [1]) | Plant response rating, Corn (corn; [2]) | Corn plant response rating (corn; [3]) | Plant response rating, Corn (corn; [4]) | Corn plant response rating (corn; [5]) | Corn plant response rating (corn; [6]) | Corn plant response rating (0 to 10 scale) (corn; Preemergence, Rate 250 g/ha) | Plant response rating, Corn (corn; [7]) | Plant response rating, Crabgrass (crabgrass; [1]) | Plant response rating, Crabgrass (crabgrass; [2]) | Crabgrass plant response rating (crabgrass; [3]) | Plant response rating, Crabgrass (crabgrass; [4]) | Crabgrass plant response rating (crabgrass; [5]) | Crabgrass plant response rating (crabgrass; [6]) | Plant response rating, Crabgrass (crabgrass; [7]) | Plant response rating, Giant foxtail (giant foxtail; [1]) | Plant response rating, Giant foxtail (giant foxtail; [2]) | Giant foxtail plant response rating (giant foxtail; [3]) | Plant response rating, Giant foxtail (giant foxtail; [4]) | Giant foxtail plant response rating (giant foxtail; [5]) | Giant foxtail plant response rating (giant foxtail; [6]) | Plant response rating, Giant foxtail (giant foxtail; [7]) | Plant response rating, Morningglory (morningglory; [1]) | Plant response rating, Morningglory (morningglory; [2]) | Morningglory plant response rating (morningglory; [5]) | Morningglory plant response rating (morningglory; [6]) | Plant response rating, Morningglory (morningglory; [7]) | Plant response rating, Redroot pigweed (pigweed; [1]) | Plant response rating, Redroot pigweed (pigweed; [2]) | Redroot pigweed plant response rating (pigweed; [3]) | Plant response rating, Redroot pigweed (pigweed; [4]) | Redroot pigweed plant response rating (pigweed; [5]) | Redroot pigweed plant response rating (pigweed; [6]) | Plant response rating, Redroot pigweed (pigweed; [7]) | Plant response rating, Rape (rape; [1]) | Plant response rating, Rape (rape; [2]) | Rape plant response rating (rape; [3]) | Plant response rating, Rape (rape; [4]) | Rape plant response rating (rape; [5]) | Rape plant response rating (rape; [6]) | Plant response rating, Rape (rape; [7]) | Plant response rating, Soybean (soybean; [1]) | Plant response rating, Soybean (soybean; [2]) | Soybean plant response rating (soybean; [5]) | Soybean plant response rating (soybean; [6]) | Plant response rating, Soybean (soybean; [7]) | Plant response rating, Sugarbeets (sugar beet; [1]) | Plant response rating, Sugarbeets (sugar beet; [2]) | Sugarbeets plant response rating (sugar beet; [3]) | Plant response rating, Sugarbeets (sugar beet; [4]) | Sugarbeets plant response rating (sugar beet; [5]) | Sugarbeets plant response rating (sugar beet; [6]) | Plant response rating, Sugarbeets (sugar beet; [7]) | Plant response rating, Velvetleaf (velvetleaf; [1]) | Plant response rating, Velvetleaf (velvetleaf; [2]) | Velvetleaf plant response rating (velvetleaf; [3]) | Velvetleaf plant response rating (velvetleaf; [5]) | Velvetleaf plant response rating (velvetleaf; [6]) | Plant response rating, Velvetleaf (velvetleaf; [7]) | Plant response rating, Wheat (wheat; [1]) | Plant response rating, Wheat (wheat; [2]) | Wheat plant response rating (wheat; [3]) | Plant response rating, Wheat (wheat; [4]) | Wheat plant response rating (wheat; [5]) | Wheat plant response rating (wheat; [6]) | Plant response rating, Wheat (wheat; [7]) | Plant response rating, Wild oats (wild oat; [1]) | Plant response rating, Wild oats (wild oat; [2]) | Wild oats plant response rating (wild oat; [3]) | Plant response rating, Wild oats (wild oat; [4]) | Wild oats plant response rating (wild oat; [5]) | Wild oats plant response rating (wild oat; [6]) | Plant response rating, Wild oats (wild oat; [7]) | Plant response rating, Nutsedge (purple nutsedge; [1]) | Plant response rating, Nutsedge (purple nutsedge; [2]) | Nutsedge plant response rating (purple nutsedge; [3]) | Plant response rating, Nutsedge (purple nutsedge; [4]) | Nutsedge plant response rating (purple nutsedge; [5]) | Nutsedge plant response rating (purple nutsedge; [6]) | Plant response rating, Nutsedge (purple nutsedge; [7]) | Plant response rating, Rice (0 to 10 scale, 0 is no effect, 10 is complete control) (rice; [8]) | Rice plant response rating (0 to 10 scale, 0 is no effect, 10 is complete control) (rice; [9]) | Rice plant response rating (rice; [10]) | Rice plant response rating (rice; [11]) | Plant response rating, S. Flatsedge (0 to 10 scale, 0 is no effect, 10 is complete control) (smallflower flatsedge; [8]) | S. Flatsedge plant response rating (0 to 10 scale, 0 is no effect, 10 is complete control) (smallflower flatsedge; [9]) | S. Flatsedge plant response rating (smallflower flatsedge; [10]) | S. Flatsedge plant response rating (smallflower flatsedge; [11]) | Plant response rating, Ducksalad (0 to 10 scale, 0 is no effect, 10 is complete control) (duck salad; [8]) | Ducksalad plant response rating (0 to 10 scale, 0 is no effect, 10 is complete control) (duck salad; [9]) | Ducksalad plant response rating (duck salad; [10]) | Ducksalad plant response rating (duck salad; [11]) | Plant response rating, Barnyardgrass (0 to 10 scale, 0 is no effect, 10 is complete control) (bamyardgrass; [8]) | Barnyardgrass plant response rating (0 to 10 scale, 0 is no effect, 10 is complete control) (bamyardgrass; [9]) | Barnyardgrass plant response rating (bamyardgrass; [10]) | Barnyardgrass plant response rating (bamyardgrass; [11])
3: Plant response rating, Morningglory (morningglory; [4])
